Data as given in PubChem BioAssay AID282 (DTP/NCI, 2004).
Several values for one entry are separate records, joined by “and”; a condition that tells them apart may be missing. Identical values can stand only once. Toxic doses and inconclusive results are not listed. Starred links: 1 amine or outer side, 2 acyl side, 3 side chain; linkers in the order of their positions; H or OH if unused. Positions of bridges follow the written chain, without caps; N, C: chain ends. Non-standard residues stand in square brackets, D forms with d. Residues, ends and D or L forms follow the SMILES beside them. Chains are numbered I, II in the order given. Actinocin(9to1) = Cc1c2oc3c(C)ccc(C(=O)[*:1])c3nc-2c(C(=O)[*:2])c(N)c1=O; aThr = C[C@H](O)[C@H](N)C(=O)O; NMeV = CN[C@H](C(=O)O)C(C)C; Sar = CNCC(=O)O

System: BDF1 mice, L1210 terephthalanilide-resistant leukemia ip, survival T/C
Assay: NCI In Vivo Anticancer Drug Screen. Data for tumor model L1210 Leukemia resistant to A Terephthalanilide; NSC 38280 (intraperitoneal) in B6D2F1 (BDF1) mice
Conditions: endpoint: mean survival time, higher = longer survival
Description: The antitumor activity of compounds was measured in mice bearing transplantable tumors. Survival or tumor size were measured and the results are expressed as the measurement made in the treated group (T) divided by the measurement made in the vehicle treated control group (C). The tumor model used in this assay is L1210 Leukemia resistant to A Terephthalanilide; NSC 38280 (intraperitoneal) in B6D2F1 (BDF1) mice

[1] = dose: 6.25 mg/kg/injection, schedule: Q01DX010 (ip), vehicle: saline
[2] = dose: 12.5 mg/kg/injection, schedule: Q01DX010 (ip), vehicle: saline
[3] = dose: 25.0 mg/kg/injection, schedule: Q01DX010 (ip), vehicle: saline
[4] = dose: 0.5 mg/kg/injection, schedule: Q01DX010 (ip), vehicle: saline
[5] = dose: 1.0 mg/kg/injection, schedule: Q01DX010 (ip), vehicle: saline
[6] = dose: 25.0 mg/kg/injection, schedule: Q01DX Z (ip), vehicle: carboxymethylcellulose (CMC)
[7] = dose: 50.0 mg/kg/injection, schedule: Q01DX Z (ip), vehicle: carboxymethylcellulose (CMC)
[8] = dose: 100.0 mg/kg/injection, schedule: Q01DX Z (ip), vehicle: carboxymethylcellulose (CMC)
[9] = dose: 50.0 mg/kg/injection, schedule: Q01DX010 (ip), vehicle: saline
[10] = dose: 5.0 mg/kg/injection, schedule: Q01DX010 (ip), vehicle: saline
[11] = dose: 10.0 mg/kg/injection, schedule: Q01DX010 (ip), vehicle: saline

In the case of `Cc1c2oc3c(C)ccc(C(=O)N[C@@H]4C(=O)N[C@H](C(C)C)C(=O)N5CCC[C@H]5C(=O)N(C)CC(=O)N(C)[C@@H](C(C)C)C(=O)O[C@H]4C)c3nc-2c(C(=O)N[C@@H]2C(=O)N[C@H](C(C)C)C(=O)N3CCC[C@H]3C(=O)N(C)CC(=O)N(C)[C@@H](C(C)C)C(=O)O[C@H]2C)c(N)c1=O` (I: [aThr][dV]P[Sar][NMeV] / II: [aThr][dV]P[Sar][NMeV]; ester I:1-I:C, II:1-II:C; linker I:N-II:N via Actinocin(9to1)), the T/C (dose: 12.5 micrograms/kg/injection, schedule: Q01DX010 (ip), vehicle: other) is reported as 117 % of control and 118 % of control, the T/C (dose: 25.0 micrograms/kg/injection, schedule: Q01DX010 (ip), vehicle: other) is reported as 121 % of control and 118 % of control and the T/C (dose: 50.0 micrograms/kg/injection, schedule: Q01DX010 (ip), vehicle: other) is reported as 124 % of control and 117 % of control. The T/C (dose: 100.0 micrograms/kg/injection, schedule: Q01DX010 (ip), vehicle: other) was 95 % of control and 103 % of control.
With `CCCNc1ncnc2[nH]ncc12` the T/C (dose: 3.13 mg/kg/injection, schedule: Q01DX010 (ip), vehicle: saline) was 92 % of control and 103 % of control, the T/C [1] was 96 % of control and 108 % of control and the T/C [2] was 95 % of control and 101 % of control. The T/C (dose: 12.5 mg/kg/injection, schedule: Q01DX Z (ip), vehicle: saline) was 115 % of control, the T/C [3] was 92 % of control and 106 % of control and the T/C (dose: 50.0 mg/kg/injection, schedule: Q01DX Z (ip), vehicle: saline) was 93 % of control.
In the case of `NC(=O)N(CCCl)N=O`, the T/C [4] is reported as 162 % of control, the T/C [5] is reported as 165 % of control and the T/C (dose: 1.0 mg/kg/injection, schedule: Q01DX Z (ip), vehicle: saline) is reported as 348 % of control. The T/C (dose: 2.0 mg/kg/injection, schedule: Q01DX Z (ip), vehicle: saline) was 252 % of control and the T/C (dose: 6.0 mg/kg/injection, schedule: Q01DX Z (ip), vehicle: saline) was 110 % of control.
For `CCOC(=O)NP(=O)(N1CC1(C)C)N1CC1(C)C` (stereo not given), the T/C (dose: 5.0 mg/kg/injection, schedule: Q01DX Z (ip), vehicle: saline) was 101 % of control, the T/C (dose: 10.0 mg/kg/injection, schedule: Q01DX Z (ip), vehicle: saline) was 115 % of control and the T/C (dose: 20.0 mg/kg/injection, schedule: Q01DX Z (ip), vehicle: saline) was 121 % of control. The T/C (dose: 40.0 mg/kg/injection, schedule: Q01DX Z (ip), vehicle: saline) was 151 % of control, the T/C (dose: 62.0 mg/kg/injection, schedule: Q01DX Z (ip), vehicle: saline) was 164 % of control and the T/C (dose: 125.0 mg/kg/injection, schedule: Q01DX Z (ip), vehicle: saline) was 236 % of control. The T/C (dose: 250.0 mg/kg/injection, schedule: Q01DX Z (ip), vehicle: saline) was 302 % of control and the T/C (dose: 500.0 mg/kg/injection, schedule: Q01DX Z (ip), vehicle: saline) was 100 % of control.
In the case of `NC(Cc1c[nH]c2ccc(N(CCCl)CCCl)cc12)C(=O)O` (stereo not given), the T/C [4] is reported as 117 % of control, the T/C [5] is reported as 108 % of control and the T/C (dose: 2.0 mg/kg/injection, schedule: Q01DX010 (ip), vehicle: saline) is reported as 120 % of control. The T/C (dose: 4.0 mg/kg/injection, schedule: Q01DX010 (ip), vehicle: saline) was 233 % of control.
`Cn1c(O)c(N=NC(N)=S)c2ccccc21` was tested, and the T/C [6] was 93 % of control, the T/C [7] was 90 % of control and the T/C [8] was 87 % of control. The T/C (dose: 200.0 mg/kg/injection, schedule: Q01DX Z (ip), vehicle: carboxymethylcellulose (CMC)) was 89 % of control.
With `CN(C)/N=N/c1nc[nH]c1C(N)=O` the T/C [3] was 123 % of control and 101 % of control, the T/C [9] was 114 % of control and the T/C (dose: 200.0 mg/kg/injection, schedule: Q01DX010 (ip), vehicle: saline) was 102 % of control.
For `CC[n+]1c(-c2ccccc2)c2cc(N)ccc2c2ccc(N)cc21`, the T/C (dose: 1.25 mg/kg/injection, schedule: Q01DX010 (ip), vehicle: saline) was 100 % of control, the T/C (dose: 2.5 mg/kg/injection, schedule: Q01DX010 (ip), vehicle: saline) was 90 % of control and the T/C [10] was 101 % of control. For the same compound, the T/C [11] was 95 % of control.
For `O=c1[nH]cc(F)c(=O)[nH]1`, the T/C (dose: 0.37 mg/kg/injection, schedule: Q01DX Z (ip), vehicle: carboxymethylcellulose (CMC)) was 102 % of control, the T/C (dose: 0.75 mg/kg/injection, schedule: Q01DX Z (ip), vehicle: carboxymethylcellulose (CMC)) was 114 % of control and the T/C (dose: 1.5 mg/kg/injection, schedule: Q01DX Z (ip), vehicle: carboxymethylcellulose (CMC)) was 117 % of control. For the same compound, the T/C [10] was 119 % of control, the T/C (dose: 6.25 mg/kg/injection, schedule: Q01DX Z (ip), vehicle: carboxymethylcellulose (CMC)) was 175 % of control and the T/C [11] was 119 % of control. For the same compound, the T/C (dose: 12.5 mg/kg/injection, schedule: Q01DX Z (ip), vehicle: carboxymethylcellulose (CMC)) was 185 % of control, the T/C (dose: 20.0 mg/kg/injection, schedule: Q01DX010 (ip), vehicle: saline) was 181 % of control and 198 % of control and the T/C [6] was 227 % of control. For the same compound, the T/C (dose: 40.0 mg/kg/injection, schedule: Q01DX010 (ip), vehicle: saline) was 104 % of control and 110 % of control and the T/C [8] was 94 % of control and 102 % of control.
In the case of `O=C(Nc1ccc(C2=NCCCN2)cc1)c1ccc(NC(=O)c2ccc(C3=NCCCN3)cc2)cc1`, the T/C (dose: 2.0 mg/kg/injection, schedule: Q01DX010 (ip), vehicle: other) is reported as 110 % of control and 112 % of control, the T/C (dose: 4.0 mg/kg/injection, schedule: Q01DX010 (ip), vehicle: other) is reported as 123 % of control and the T/C (dose: 8.0 mg/kg/injection, schedule: Q01DX010 (ip), vehicle: other) is reported as 102 % of control.
With `O=C1C(NC(=O)C2CCCCC2)=C(N2CC2)C(=O)C(NC(=O)C2CCCCC2)=C1N1CC1` the T/C [1] was 98 % of control, the T/C [2] was 98 % of control and the T/C (dose: 18.0 mg/kg/injection, schedule: Q01DX Z (ip), vehicle: carboxymethylcellulose (CMC)) was 108 % of control. The T/C [3] was 93 % of control and 98 % of control, the T/C [6] was 97 % of control and the T/C (dose: 37.5 mg/kg/injection, schedule: Q01DX Z (ip), vehicle: carboxymethylcellulose (CMC)) was 91 % of control. For the same compound, the T/C [9] was 90 % of control and 102 % of control, the T/C [7] was 100 % of control and the T/C (dose: 125.0 mg/kg/injection, schedule: Q01DX Z (ip), vehicle: carboxymethylcellulose (CMC)) was 121 % of control. The T/C (dose: 250.0 mg/kg/injection, schedule: Q01DX Z (ip), vehicle: carboxymethylcellulose (CMC)) was 122 % of control.
For `Nc1ncnc2c1ccn2C1OC(CO)C(O)C1O` (stereo not given), the T/C (dose: 0.23 mg/kg/injection, schedule: Q01DX Z (ip), vehicle: saline) was 98 % of control, the T/C (dose: 0.47 mg/kg/injection, schedule: Q01DX Z (ip), vehicle: saline) was 113 % of control and the T/C (dose: 0.93 mg/kg/injection, schedule: Q01DX Z (ip), vehicle: saline) was 109 % of control. For the same compound, the T/C (dose: 1.87 mg/kg/injection, schedule: Q01DX Z (ip), vehicle: saline) was 116 % of control and the T/C (dose: 2.5 mg/kg/injection, schedule: Q01DX Z (ip), vehicle: carboxymethylcellulose (CMC)) was 103 % of control.
With `C[C@]12C=CC(=O)C=C1CC[C@@H]1[C@@H]2[C@@H](O)C[C@@]2(C)[C@H]1CC[C@]2(O)C(=O)CO` the T/C (dose: 12.5 mg/kg/injection, schedule: Q01DX010 (sc), vehicle: steriod suspending solution) was 100 % of control, the T/C (dose: 25.0 mg/kg/injection, schedule: Q01DX010 (sc), vehicle: steriod suspending solution) was 100 % of control and the T/C (dose: 50.0 mg/kg/injection, schedule: Q01DX010 (sc), vehicle: steriod suspending solution) was 98 % of control. For the same compound, the T/C (dose: 100.0 mg/kg/injection, schedule: Q01DX010 (sc), vehicle: steriod suspending solution) was 95 % of control.
For `C=C1C[C@H]2[C@@H]3C=C(C)C4=CC(=O)CC[C@]4(C)[C@H]3CC[C@]2(C)[C@@]1(OC(C)=O)C(C)=O`, the T/C (dose: 62.5 mg/kg/injection, schedule: Q01DX010 (sc), vehicle: steriod suspending solution) was 101 % of control, the T/C (dose: 125.0 mg/kg/injection, schedule: Q01DX010 (sc), vehicle: steriod suspending solution) was 93 % of control and the T/C (dose: 250.0 mg/kg/injection, schedule: Q01DX010 (sc), vehicle: steriod suspending solution) was 97 % of control. For the same compound, the T/C (dose: 500.0 mg/kg/injection, schedule: Q01DX010 (sc), vehicle: steriod suspending solution) was 95 % of control.
In the case of `CCCSc1ncnc2nc[nH]c12`, the T/C (dose: 31.3 mg/kg/injection, schedule: Q01DX010 (ip), vehicle: saline) is reported as 95 % of control and 99 % of control, the T/C (dose: 44.0 mg/kg/injection, schedule: Q01DX Z (ip), vehicle: other) is reported as 96 % of control and the T/C (dose: 62.5 mg/kg/injection, schedule: Q01DX010 (ip), vehicle: saline) is reported as 106 % of control and 111 % of control. For the same compound, the T/C (dose: 87.5 mg/kg/injection, schedule: Q01DX Z (ip), vehicle: other) was 121 % of control and the T/C (dose: 125.0 mg/kg/injection, schedule: Q01DX010 (ip), vehicle: saline) was 100 % of control and 111 % of control.
